This note sets out measurements from patent publication US20100160356A1, “NOVEL CYCLOBUTYL COMPOUNDS AS KINASE INHIBITORS” (priority 2006, published 2010).

As a reminder, the IC50 is the concentration that inhibits the measured activity by half. A higher IC50 goes with lower potency. Usually solubility stands for the dissolved amount per volume that the medium holds. Higher therefore signals a readily soluble substance.

In brackets after ≈: the same amount, converted by molar mass.

Chain of IGF1R (P08069 31-1367, species assumed): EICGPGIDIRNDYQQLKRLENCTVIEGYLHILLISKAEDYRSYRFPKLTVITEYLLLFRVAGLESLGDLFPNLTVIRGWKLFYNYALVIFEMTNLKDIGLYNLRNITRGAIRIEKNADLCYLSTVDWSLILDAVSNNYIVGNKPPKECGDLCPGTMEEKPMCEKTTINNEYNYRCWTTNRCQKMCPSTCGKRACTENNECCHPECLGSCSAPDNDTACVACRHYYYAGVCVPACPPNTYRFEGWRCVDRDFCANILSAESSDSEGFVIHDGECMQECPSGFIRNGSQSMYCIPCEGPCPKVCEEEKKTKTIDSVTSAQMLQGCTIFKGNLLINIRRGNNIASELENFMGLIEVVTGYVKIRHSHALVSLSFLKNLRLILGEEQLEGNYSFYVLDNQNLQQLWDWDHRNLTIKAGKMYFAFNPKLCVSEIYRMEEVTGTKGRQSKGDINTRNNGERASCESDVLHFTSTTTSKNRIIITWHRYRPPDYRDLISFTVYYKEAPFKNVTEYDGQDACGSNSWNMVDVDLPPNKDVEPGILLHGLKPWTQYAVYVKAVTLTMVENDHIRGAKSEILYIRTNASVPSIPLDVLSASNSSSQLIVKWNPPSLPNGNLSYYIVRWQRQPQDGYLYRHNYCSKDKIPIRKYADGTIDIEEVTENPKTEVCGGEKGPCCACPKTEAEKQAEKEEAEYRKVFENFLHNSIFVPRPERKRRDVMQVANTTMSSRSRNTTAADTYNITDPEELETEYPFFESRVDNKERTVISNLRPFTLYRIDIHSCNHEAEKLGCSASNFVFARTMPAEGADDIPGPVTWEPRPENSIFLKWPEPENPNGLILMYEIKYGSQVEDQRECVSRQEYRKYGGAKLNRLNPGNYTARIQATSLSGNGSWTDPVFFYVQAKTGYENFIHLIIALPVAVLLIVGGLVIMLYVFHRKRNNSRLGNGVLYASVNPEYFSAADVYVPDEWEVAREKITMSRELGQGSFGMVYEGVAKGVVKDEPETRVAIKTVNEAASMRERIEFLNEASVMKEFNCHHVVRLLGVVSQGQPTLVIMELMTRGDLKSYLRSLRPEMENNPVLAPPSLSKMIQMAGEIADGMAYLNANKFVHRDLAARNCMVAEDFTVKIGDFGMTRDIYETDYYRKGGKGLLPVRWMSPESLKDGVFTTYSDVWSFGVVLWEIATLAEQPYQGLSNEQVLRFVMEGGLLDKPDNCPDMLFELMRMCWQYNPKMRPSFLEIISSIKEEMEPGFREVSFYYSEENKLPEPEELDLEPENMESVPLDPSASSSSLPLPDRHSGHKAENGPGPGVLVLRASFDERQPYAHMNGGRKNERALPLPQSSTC
Chain of FAK (Q05397 whole entry, species assumed): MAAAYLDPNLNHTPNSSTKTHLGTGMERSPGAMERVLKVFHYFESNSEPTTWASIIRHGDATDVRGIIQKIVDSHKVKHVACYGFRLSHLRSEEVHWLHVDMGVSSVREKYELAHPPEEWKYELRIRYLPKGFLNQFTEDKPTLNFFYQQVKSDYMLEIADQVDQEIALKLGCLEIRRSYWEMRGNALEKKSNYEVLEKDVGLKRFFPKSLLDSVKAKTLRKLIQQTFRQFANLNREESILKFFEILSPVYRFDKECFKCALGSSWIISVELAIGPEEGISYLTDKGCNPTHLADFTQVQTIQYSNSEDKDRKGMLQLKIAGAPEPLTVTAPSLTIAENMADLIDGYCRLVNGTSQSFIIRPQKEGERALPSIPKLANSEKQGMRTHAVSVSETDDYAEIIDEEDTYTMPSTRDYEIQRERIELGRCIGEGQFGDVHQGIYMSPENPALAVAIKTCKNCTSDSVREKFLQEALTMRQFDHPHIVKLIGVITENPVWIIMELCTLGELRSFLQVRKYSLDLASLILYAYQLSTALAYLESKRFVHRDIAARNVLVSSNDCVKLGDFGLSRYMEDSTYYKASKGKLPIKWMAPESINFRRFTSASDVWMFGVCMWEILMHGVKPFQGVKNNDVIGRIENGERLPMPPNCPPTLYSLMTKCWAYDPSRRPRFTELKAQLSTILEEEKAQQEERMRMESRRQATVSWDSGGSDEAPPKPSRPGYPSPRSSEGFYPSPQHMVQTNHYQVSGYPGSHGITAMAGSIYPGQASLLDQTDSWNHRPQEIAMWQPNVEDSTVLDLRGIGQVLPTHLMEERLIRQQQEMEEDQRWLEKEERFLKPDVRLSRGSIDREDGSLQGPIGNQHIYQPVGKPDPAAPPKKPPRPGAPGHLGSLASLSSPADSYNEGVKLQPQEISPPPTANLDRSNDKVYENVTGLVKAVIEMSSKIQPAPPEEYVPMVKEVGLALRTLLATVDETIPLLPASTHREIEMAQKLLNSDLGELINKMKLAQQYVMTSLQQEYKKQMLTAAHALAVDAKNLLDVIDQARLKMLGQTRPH

The first data set addresses FAK (Homo sapiens, UniProt Q05397). The experiment in a line: Inhibition of FAK (flashplate assay). The conditions noted are these: flashplate method. Type of data set: biochemical. The procedure:
The test plates used are 384-well flashplate microtitre plates from Perkin Elmer (USA). The components of the kinase reaction are pipetted into the assay plate. The FAK kinase is incubated for 3 hr. with radioactively labelled ^33P-ATP in the presence and absence of test substances in a total volume of 100 μl at room temperature together with biotinylated poly(Glu, Tyr)4:1. The reaction is terminated using 25 μl of a 200 mM EDTA solution. After incubation for a further 30 min at room temperature, the supernatants are removed by suction, and the wells are washed three times with 100 μl of 0.9% NaCl solution each time. The radioactivity is measured using a Topcount scintillation counter (PerkinElmer, USA). IC50 values are calculated using the RS1 computer program.
On to `Nc1ncnc2c1c(-c1cccc(O)c1)cn2C1CC(CN2CCCC2)C1` (stereo not drawn) [Compound 1, 3-[4-amino-7-(3-pyrrolidin-1-ylmethylcyclobutyl)-7H-pyrrolo[2,3-d]pyrimidin-5-yl]phenol], for which the IC50 stood at 1800 nM.

The compound `Nc1ncnc2c1c(-c1cccc(O)c1)cn2C1CC(CN2CCCC2)C1` (stereo not drawn) [Compound 2, 3-[4-Amino-7-(3-pyrrolidin-1-ylmethylcyclobutyl)-7H-pyrrolo[2,3-d]pyrimidin-5-yl]phenol] gave a half-maximal inhibitory concentration (IC50) of 2700 nM.

Consider `NCC1CC(n2cc(-c3ccc4[nH]ccc4c3)c3c(N)ncnc32)C1` (stereo not drawn) [Compound 3, 7-(3-Aminomethylcyclobutyl)-5-(1H-indol-5-yl)-7H-pyrrolo[2,3-d]pyrimidin-4-ylamine], for which the IC50 amounted to 7900 nM.

A further data set addresses TIE2 (Homo sapiens, UniProt Q02763). The experiment in a line: Inhibition of TIE2 (flashplate assay). Type of data set: biochemical. The conditions noted are these: flashplate method. In outline: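 Radiometric flashplate kinase assay: TIE2 incubated 3 h at room temperature with ³³P-ATP and biotinylated poly(Glu,Tyr) 4:1, with or without test compound. Reaction stopped with EDTA, wells washed, incorporated radioactivity counted by scintillation; IC50 calculated from the data.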
Consider `Nc1ncnc2c1c(-c1cccc(O)c1)cn2C1CC(CN2CCCC2)C1` (stereo not drawn) [Compound 1, 3-[4-amino-7-(3-pyrrolidin-1-ylmethylcyclobutyl)-7H-pyrrolo[2,3-d]pyrimidin-5-yl]phenol], for which the IC50 came out at 520 nM. This counts as sub-micromolar.

In turn, `Nc1ncnc2c1c(-c1cccc(O)c1)cn2C1CC(CN2CCCC2)C1` (stereo not drawn) [Compound 2, 3-[4-Amino-7-(3-pyrrolidin-1-ylmethylcyclobutyl)-7H-pyrrolo[2,3-d]pyrimidin-5-yl]phenol] gave an IC50 of 870 nM.

For the compound `NCC1CC(n2cc(-c3ccc4[nH]ccc4c3)c3c(N)ncnc32)C1` (stereo not drawn) [Compound 3, 7-(3-Aminomethylcyclobutyl)-5-(1H-indol-5-yl)-7H-pyrrolo[2,3-d]pyrimidin-4-ylamine], 380 nM corresponded to half-maximal inhibition (IC50).

`NCC1CC(n2cc(-c3cc4ccccc4o3)c3c(N)ncnc32)C1` (stereo not drawn) [Compound 37] registered a concentration for half-maximal inhibition (IC50) of 1100 nM.

System in another data set: not listed separately
The experiment in a line: Solubility in phosphate buffer by the shake flask method. In kind it is physicochemical. The conditions noted are these: 37 °C, pH 7, aqueous buffer, thermodynamic from solid, pH 7.0, 37° C., 24 h shake flask. On the procedure:
The procedure described in Glomme et al. (J. Pharm. Sci. 94(1): 1-16, 2005) is followed. The concentration determination is carried out by HPLC with UV detection against a standard solution.
Buffer: 3.954 g of sodium dihydrogenphosphate monohydrate 6.024 g of sodium chloride +950 ml of ultrapure water. Setting of pH 7.0 using 0.1 M NaOH or 0.1 M HCl.
The samples were shaken at 37° C. and 450 rpm for 24 h. After about 7 h, the pH of the samples was checked and adjusted if necessary. It was checked whether the sample was still present in excess. Just before the end of the 24 h shaking time, the samples were again checked for pH and a precipitate.
• Ultrapure water plant: MilliQ gradient, Millipore, unit: F3PN37462D • Shaker: TiMix control, Bühler • Incubation hood: TH 15, Bühler • pH meter: 766 Calimatic Knick instrument: pH 1 • pH electrode: InLab 423 Mettler • HPLC: column: LiChroCart 125-4 LiChrospher 100 RP-18 • flow rate: 1.000 ml/min • eluents: • eluent A: 2 ml of diethylamine, for synthesis+1000 ml of methanol, LiChrosolv • eluent B: 5 g of ammonium acetate, for analysis+5 ml of methanol, LiChrosolv+995 ml of ultrapure water
As for `Nc1ncnc2c1c(-c1cccc(O)c1)cn2C1CC(CN2CCCC2)C1` (stereo not drawn) [Compound 1, 3-[4-amino-7-(3-pyrrolidin-1-ylmethylcyclobutyl)-7H-pyrrolo[2,3-d]pyrimidin-5-yl]phenol], the solubility at 24 h is 1070 µg/mL (≈ 2.95 mM).

`NCC1CC(n2cc(-c3ccc4[nH]ccc4c3)c3c(N)ncnc32)C1` (stereo not drawn) [Compound 3, 7-(3-Aminomethylcyclobutyl)-5-(1H-indol-5-yl)-7H-pyrrolo[2,3-d]pyrimidin-4-ylamine] showed a solubility at 24 h of 1330 µg/mL (≈ 3.99 mM).

Still in this data set, the particulars now being: pH 7.0, 37° C., 24 h shake flask.
In the case of `Nc1ncnc2c1c(-c1cccc(O)c1)cn2C1CC(CN2CCCC2)C1` (stereo not drawn) [Compound 2, 3-[4-Amino-7-(3-pyrrolidin-1-ylmethylcyclobutyl)-7H-pyrrolo[2,3-d]pyrimidin-5-yl]phenol], the Solubility came to 1147 µg/mL (≈ 3.16 mM).

Still in this data set, the particulars now being: pH 7.0, 37° C., 24 h shake flask, listed as 3-[4-Amino-7-(3-pyrrolidin-1-ylmethylcyclobutyl)-7H-pyrrolo[2,3-d]pyrimidin-5-yl.
As for `Nc1ncnc2c1c(-c1cccc(O)c1)cn2C1CC(CN2CCCC2)C1` (stereo not drawn) [Compound 2, 3-[4-Amino-7-(3-pyrrolidin-1-ylmethylcyclobutyl)-7H-pyrrolo[2,3-d]pyrimidin-5-yl]phenol], the Solubility is recorded as 1147 (tosylate) μg/ml.

In the next data set the target is PDGFRβ (Homo sapiens, UniProt P09619). The experiment in a line: Inhibition of PDGFRβ (flashplate assay). Type of data set: biochemical. The note with it: flashplate method. In outline: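 Readout is scintillation counting of ^33P incorporated by PDGFRβ autophosphorylation after EDTA stop and washes. Kinase and ^33P-ATP were incubated with or without compound for 3 hr at room temperature. IC50 derived from these counts.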
Chain of PDGFRβ (P09619 33-1106, species assumed): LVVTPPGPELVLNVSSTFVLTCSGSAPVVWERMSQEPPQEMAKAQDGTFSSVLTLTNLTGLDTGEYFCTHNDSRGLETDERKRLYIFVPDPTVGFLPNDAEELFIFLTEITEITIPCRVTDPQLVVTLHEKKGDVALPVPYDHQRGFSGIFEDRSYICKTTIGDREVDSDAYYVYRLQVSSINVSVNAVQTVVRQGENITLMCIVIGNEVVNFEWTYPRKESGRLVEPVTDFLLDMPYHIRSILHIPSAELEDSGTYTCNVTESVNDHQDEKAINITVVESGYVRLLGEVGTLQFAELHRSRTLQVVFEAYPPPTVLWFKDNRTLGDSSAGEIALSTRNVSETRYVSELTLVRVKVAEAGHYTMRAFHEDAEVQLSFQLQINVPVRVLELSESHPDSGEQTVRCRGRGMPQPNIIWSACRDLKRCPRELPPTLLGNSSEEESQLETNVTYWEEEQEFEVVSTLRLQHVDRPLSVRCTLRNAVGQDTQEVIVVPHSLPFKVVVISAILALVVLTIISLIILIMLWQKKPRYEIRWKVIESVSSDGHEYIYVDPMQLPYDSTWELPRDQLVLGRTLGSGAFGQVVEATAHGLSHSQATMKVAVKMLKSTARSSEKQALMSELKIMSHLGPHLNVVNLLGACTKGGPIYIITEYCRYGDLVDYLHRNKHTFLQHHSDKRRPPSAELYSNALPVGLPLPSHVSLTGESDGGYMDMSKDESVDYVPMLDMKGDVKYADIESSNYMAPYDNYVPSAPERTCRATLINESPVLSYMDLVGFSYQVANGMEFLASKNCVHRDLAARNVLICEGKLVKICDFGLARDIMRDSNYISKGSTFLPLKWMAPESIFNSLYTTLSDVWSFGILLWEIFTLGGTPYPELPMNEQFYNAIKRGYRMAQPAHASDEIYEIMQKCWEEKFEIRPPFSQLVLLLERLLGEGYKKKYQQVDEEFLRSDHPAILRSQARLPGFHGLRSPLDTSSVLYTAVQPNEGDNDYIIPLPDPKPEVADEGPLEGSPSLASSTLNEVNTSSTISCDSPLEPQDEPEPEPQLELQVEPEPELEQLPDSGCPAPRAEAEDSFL
As for `Nc1ncnc2c1c(-c1cccc(O)c1)cn2C1CC(CN2CCCC2)C1` (stereo not drawn) [Compound 1, 3-[4-amino-7-(3-pyrrolidin-1-ylmethylcyclobutyl)-7H-pyrrolo[2,3-d]pyrimidin-5-yl]phenol], 97 nM corresponded to half-maximal inhibition (IC50).

As to `Nc1ncnc2c1c(-c1cccc(O)c1)cn2C1CC(CN2CCCC2)C1` (stereo not drawn) [Compound 2, 3-[4-Amino-7-(3-pyrrolidin-1-ylmethylcyclobutyl)-7H-pyrrolo[2,3-d]pyrimidin-5-yl]phenol], it took 120 nM to reach half-maximal inhibition (IC50). This IC50 and that of the compound before are within 1.5-fold of each other.

`NCC1CC(n2cc(-c3ccc4[nH]ccc4c3)c3c(N)ncnc32)C1` (stereo not drawn) [Compound 3, 7-(3-Aminomethylcyclobutyl)-5-(1H-indol-5-yl)-7H-pyrrolo[2,3-d]pyrimidin-4-ylamine] returned a 50% inhibitory concentration (IC50) of 150 nM.

For `NCC1CC(n2cc(-c3cc4ccccc4o3)c3c(N)ncnc32)C1` (stereo not drawn) [Compound 37], inhibition was half-maximal at 170 nM (IC50).

For another data set, the target named is T1, FAK (focal adhesion kinase) (Homo sapiens, UniProt Q05397).
T1 construct: endogenous in cells; host or cells: Calu-6 or HT-29
T1 sequence (Q05397 whole entry): as the sequence (Q05397 whole entry, species assumed) above
The experiment in a line: Inhibition of FAK (ELISA assay), FAK phosphorylation in cells. The note with it: human cells with FAK amplification. Type of data set: cell-based. Summed up: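 Cells pretreated 45 min with increasing compound concentrations, with a reference inhibitor series as internal control. FAK from lysates captured by specific antibody on ELISA plate or LUMINEX beads; tyrosine phosphorylation detected with anti-phosphotyrosine antibody by chemiluminescence or fluorescence.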
Regarding `Nc1ncnc2c1c(-c1cccc(O)c1)cn2C1CC(CN2CCCC2)C1` (stereo not drawn) [Compound 1, 3-[4-amino-7-(3-pyrrolidin-1-ylmethylcyclobutyl)-7H-pyrrolo[2,3-d]pyrimidin-5-yl]phenol], inhibition was half-maximal at 77 nM (IC50).

On to `Nc1ncnc2c1c(-c1cccc(O)c1)cn2C1CC(CN2CCCC2)C1` (stereo not drawn) [Compound 2, 3-[4-Amino-7-(3-pyrrolidin-1-ylmethylcyclobutyl)-7H-pyrrolo[2,3-d]pyrimidin-5-yl]phenol], for which the 50% inhibitory concentration (IC50) is 260 nM.

In the case of `NCC1CC(n2cc(-c3ccc4[nH]ccc4c3)c3c(N)ncnc32)C1` (stereo not drawn) [Compound 3, 7-(3-Aminomethylcyclobutyl)-5-(1H-indol-5-yl)-7H-pyrrolo[2,3-d]pyrimidin-4-ylamine], the IC50 is 370 nM. This IC50 and that of the compound before are within 1.5-fold of each other.

Consider `NCC1CC(n2cc(-c3cc4ccccc4o3)c3c(N)ncnc32)C1` (stereo not drawn) [Compound 37], for which half-maximal inhibition (IC50) was put at 6100 nM. Against the preceding compound, the IC50 is about 16-fold higher.

The next data set deals with IGF1R (Homo sapiens, UniProt P08069). The experiment in a line: Inhibition of IGF1R (flashplate assay). In kind it is biochemical. The conditions noted are these: flashplate method. Summed up:
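IGF1R kinase incubated 1 hr at room temperature with ^33P-ATP and biotinylated poly(Glu,Tyr)4:1 ± test compound; stopped with EDTA, wells washed after 30 min. Bound radioactivity counted by scintillation; IC50 calculated.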
In the case of `Nc1ncnc2c1c(-c1cccc(O)c1)cn2C1CC(CN2CCCC2)C1` (stereo not drawn) [Compound 1, 3-[4-amino-7-(3-pyrrolidin-1-ylmethylcyclobutyl)-7H-pyrrolo[2,3-d]pyrimidin-5-yl]phenol], the IC50 was determined as 60 nM. This counts as double-digit nanomolar.

The compound `Nc1ncnc2c1c(-c1cccc(O)c1)cn2C1CC(CN2CCCC2)C1` (stereo not drawn) [Compound 2, 3-[4-Amino-7-(3-pyrrolidin-1-ylmethylcyclobutyl)-7H-pyrrolo[2,3-d]pyrimidin-5-yl]phenol] returned a half-inhibitory concentration (IC50) of 110 nM.

Compound `NCC1CC(n2cc(-c3ccc4[nH]ccc4c3)c3c(N)ncnc32)C1` (stereo not drawn) [Compound 3, 7-(3-Aminomethylcyclobutyl)-5-(1H-indol-5-yl)-7H-pyrrolo[2,3-d]pyrimidin-4-ylamine] yielded a half-maximal inhibitory concentration (IC50) of 930 nM.

`NCC1CC(n2cc(-c3cc4ccccc4o3)c3c(N)ncnc32)C1` (stereo not drawn) [Compound 37] displayed an IC50 of 8400 nM.

The target in another data set is VEGF-2 (Homo sapiens, UniProt P35968). The experiment in a line: Inhibition of VEGF-2 (flashplate assay). Type of data set: biochemical. The conditions noted are these: flashplate method. In outline: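 Kinase incubated 3 hr at room temperature with ^33P-ATP and biotinylated poly(Glu, Tyr)4:1, with or without test substance. Stopped with EDTA, wells washed after 30 min; incorporated radioactivity counted by scintillation and IC50 calculated.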
Chain of VEGF-2 (P35968 20-1356): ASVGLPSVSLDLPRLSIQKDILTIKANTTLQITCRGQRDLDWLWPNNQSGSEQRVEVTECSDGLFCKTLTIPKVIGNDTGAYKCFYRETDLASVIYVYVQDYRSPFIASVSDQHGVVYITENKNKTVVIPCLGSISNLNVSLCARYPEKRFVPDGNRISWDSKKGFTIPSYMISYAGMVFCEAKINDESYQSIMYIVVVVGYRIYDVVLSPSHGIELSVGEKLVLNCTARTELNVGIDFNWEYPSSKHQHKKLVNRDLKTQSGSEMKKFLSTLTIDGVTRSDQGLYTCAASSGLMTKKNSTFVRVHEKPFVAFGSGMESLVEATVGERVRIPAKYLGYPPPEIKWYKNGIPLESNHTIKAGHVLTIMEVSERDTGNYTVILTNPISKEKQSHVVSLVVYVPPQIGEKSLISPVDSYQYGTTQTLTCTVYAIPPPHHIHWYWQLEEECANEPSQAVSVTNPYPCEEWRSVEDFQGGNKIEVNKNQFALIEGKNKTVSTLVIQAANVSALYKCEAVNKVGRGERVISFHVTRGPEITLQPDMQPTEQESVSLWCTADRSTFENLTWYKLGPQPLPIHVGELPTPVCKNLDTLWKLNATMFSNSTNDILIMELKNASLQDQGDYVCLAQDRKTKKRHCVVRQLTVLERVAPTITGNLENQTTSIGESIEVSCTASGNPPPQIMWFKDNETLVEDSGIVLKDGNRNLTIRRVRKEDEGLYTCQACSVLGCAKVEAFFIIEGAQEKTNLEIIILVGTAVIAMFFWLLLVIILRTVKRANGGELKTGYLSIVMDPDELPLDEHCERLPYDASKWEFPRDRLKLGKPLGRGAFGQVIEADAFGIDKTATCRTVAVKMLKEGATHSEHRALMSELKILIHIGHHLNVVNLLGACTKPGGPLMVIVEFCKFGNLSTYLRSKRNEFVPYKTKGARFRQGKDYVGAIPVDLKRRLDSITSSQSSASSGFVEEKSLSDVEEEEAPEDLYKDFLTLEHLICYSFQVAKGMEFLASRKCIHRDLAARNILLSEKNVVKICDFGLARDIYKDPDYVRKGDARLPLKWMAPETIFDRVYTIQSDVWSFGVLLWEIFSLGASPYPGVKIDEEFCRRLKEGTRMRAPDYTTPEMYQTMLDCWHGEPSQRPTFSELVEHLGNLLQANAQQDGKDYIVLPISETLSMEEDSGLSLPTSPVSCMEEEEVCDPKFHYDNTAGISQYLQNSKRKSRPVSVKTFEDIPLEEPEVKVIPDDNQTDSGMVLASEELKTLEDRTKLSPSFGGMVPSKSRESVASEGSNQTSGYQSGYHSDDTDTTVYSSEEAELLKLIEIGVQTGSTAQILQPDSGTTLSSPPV
For the compound `Nc1ncnc2c1c(-c1cccc(O)c1)cn2C1CC(CN2CCCC2)C1` (stereo not drawn) [Compound 1, 3-[4-amino-7-(3-pyrrolidin-1-ylmethylcyclobutyl)-7H-pyrrolo[2,3-d]pyrimidin-5-yl]phenol], half-maximal inhibition (IC50) required 180 nM.

Consider `Nc1ncnc2c1c(-c1cccc(O)c1)cn2C1CC(CN2CCCC2)C1` (stereo not drawn) [Compound 2, 3-[4-Amino-7-(3-pyrrolidin-1-ylmethylcyclobutyl)-7H-pyrrolo[2,3-d]pyrimidin-5-yl]phenol], for which the IC50 was 195 nM.

Compound `NCC1CC(n2cc(-c3ccc4[nH]ccc4c3)c3c(N)ncnc32)C1` (stereo not drawn) [Compound 3, 7-(3-Aminomethylcyclobutyl)-5-(1H-indol-5-yl)-7H-pyrrolo[2,3-d]pyrimidin-4-ylamine] returned a concentration for half-maximal inhibition (IC50) of 10 nM. This IC50 is about 20-fold lower than that of the compound before.

`NCC1CC(n2cc(-c3cc4ccccc4o3)c3c(N)ncnc32)C1` (stereo not drawn) [Compound 37] showed an IC50 of 160 nM.
